The results in this text go back to patent US9433663B2, “Mobilization of hematopoietic stem cells” (Children's Hospital Medical Center, priority 2008, dated 2016).

In one assay the test system is donor cell engraftment. The assay is described as follows: Example 9 mobilization as preparative regimen for HSC transplantation. The class given is in vivo, mice. The settings on record: compared to the non-mobilization control. The method, then: If the microenvironmental niches are vacated after CASIN exposure, donor HSCs might engraft better in hosts treated with a mobilizing agent such as CASIN compared with non-mobilized controls. To test this, bone marrow transplantation is performed on recipient mice which are pre-conditioned with CASIN. […] Additionally, AMD3100, G-CSF, and control medium are used in parallel with CASIN as controls.
Briefly, mice are treated with CASIN, and 4×10^7 donor bone marrow cells from congenic mouse strain are transplanted 48 h later. Donor cell engraftment is assayed at 3 months using the congenic markers by flow cytometry.
Additionally, multiple cycles of mobilization with CASIN may increase the number of available niches. Therefore, this study investigates whether repeated cycles of CASIN mobilization, each followed by donor cell transplantation, could result in increased engraftment. Briefly, mice receive one weekly injection of CASIN on 3 consecutive weeks and 4×10^7 donor marrow cells are transplanted 48 hours after each mobilization. Control animals also received 3 weekly infusions of 4×10^7 donor marrow cells but no CASIN. And the donor engraftment is assayed at 3 months after transplantation as well.

A further assay concerns C57Bl/6 mice. The assay is described as follows: mobilization of colony-forming progenitors to peripheral blood, CFU-C assay. The conditions noted are these: C57Bl/6 mice, FIG. 8b. Format: in vivo. How it is done: Whether CASIN administration can induce mobilization of HSC/Ps to peripheral blood of C57Bl/6 mice, mimicking the phenotype observed in Cdc42 conditional knockout mice, was evaluated. First of all, mobilization of hematopoietic progenitor cells was examined by CFU-C assays functionally (FIG. 3a). […] Secondarily, to further explore the ability of CASIN to mobilize LT-HSC which is crucial for long-term repopulation of the mobilized cells, serial transplantations were carried out, where 20 million PB from CASIN-mobilized C57Bl/6 mice was transplanted into primary recipient of NOD/SCID mice, and subsequent secondary and tertiary transplants were finished as well using prior BMs (FIG. 3c). Donor chimerisms were assessed by using H2K^b congenic marker which is positive for donors of C57Bl/6 strain and negative for recipients of NOD/SCID strain. […] Therefore, the studies show CASIN can efficiently mobilize colony-forming hematopoietic progenitors and LT-HSCs with self-renewal and multi-lineage differentiation capacity. Thirdly, to further investigate the potential of CASIN to vacate the BM niche after mobilization, six-color staining of the BM cells was performed from C57Bl/6 mice with or without CASIN treatment followed by FACS analysis. […] Therefore, a transient decrease in BM and a concomitant increase in peripheral organs of HSCs would be beneficial to facilitating the subsequent HSC transplantation.
To determinate the hematopoietic progenitor content in the PB of mobilized C57Bl/6 mice, colony-forming unit assay was performed as described previously. Briefly, 200 ul PB was plated in triplicate into methylcellulose (MethocultM3434; StemCell Technology, Vancouver, BC, Canada). Colonies were then counted 7 d later.

In assay [1] the test system is Fancc−/− mice. The experiment in a line: Example 10 preparative regimen for BM transplantation in Fancc−/− mice. The class given is in vivo. The settings on record: preconditioning before BM transplantation. The method, then: Four preparative regimens before BM transplantation on Fancc−/− mice are used to evaluate the capacity of CASIN as a preconditioning agent: (1) Control group; (2) CY group: a single dose of 40 mg/kg CY intraperitoneally; (3) CASIN group: 2.5 mg/Kg; (4) combination of CASIN and CY: one injection of CASIN is given in combination with reduced doses of CY.
Fancc−/− mice are preconditioned with each of these four regimens, and 4×10^7 BM cells from congenic strain mice are transplanted into preconditioned mice by tail vein injection. Mice that underwent transplantation are bled every four weeks to monitor the chimerism of donor-derived cells in PB. And at 3 m, the mice are sacrificed to evaluate the engraftment of donor-derived cells in BM.

Assay [2] has as its system Fancc−/− mice. The experiment in a line: Example 10 HSC/P mobilization in Fancc−/− mice. The settings on record: mouse, in vivo. The method, then: The effects of CASIN on HSC/P mobilization in Fancc−/− mice are investigated under four groups in parallel with WT mice: (1) Control group; (2) G-CSF group: 2.5 μg G-CSF per mouse, twice a day for 4 d120; (3) CASIN group: 2.5 mg/Kg; (4) combination of CASIN and G-CSF: one injection of CASIN is given 40 h before the end of 4 d G-CSF administration.
Fancc−/− or WT mice are mobilized with regimens corresponding to the four experimental groups. Then PB are harvested by cardiac puncture. Phenotypically, the absolute number and percentage of HSC/Ps in PB after mobilization are determined as those of LSK (Lin− Sca+ c-Kit+) cells by flow cytometry. Functionally, CFU-C assay is performed in triplicate for each mouse by using PB of mice from different experimental groups, and CFU-GM, CFU-GEMM, BFU-E, and CFU-E are distinguished by morphology and using cytokine combinations. Furthermore, the long-term repopulation capacity of the mobilized HSCs is evaluated using a competitive repopulating assay and subsequent secondary transplantation as discussed above.

Take `c1cc(CN2CCCNCCNCCCNCC2)ccc1CN1CCCNCCNCCCNCC1` [AMD3100, reference compound]: in the assay on donor cell engraftment, the “engraftment of donor cells in pre-conditioned recipients” value was “significantly increased engraftment of donor cells”. In the assay on C57Bl/6 mice, the “mobilization of colony-forming progenitors” value is reported as “can mobilize colony-forming progenitors”.

Regarding `O=P1(N(CCCl)CCCl)NCCCO1` (stereo not drawn) [CY, reference compound], the “repopulation and engraftment of donor derived cells in PB and BM of Fancc−/− recipient mice” value in the assay with Fancc−/− mice [1] is “comparable engraftment and repopulation”.

B1: G-CSF: growth factor, currently available HSPC mobilization agent (protein, UniProt P09919 31-207, looked up)
Granulocyte …: TPLGPASSLPQSFLLKCLEQVRKIQGDGAALQEKLVSECATYKLCHPEELVLLGHSLGIPWAPLSSCPSQALQLAGCLSQLHSGLFLYQGLLQALEGISPELGPTLDTLQLDVADFATTIWQQMEELGMAPALQPTQGAMPAFASAFQRRAGGVLVASHLQSFLEVSYRVLRHLAQP
For the molecule B1, in the assay with donor cell engraftment, the “engraftment of donor cells in pre-conditioned recipients” value is “significantly increased engraftment of donor cells”. Further, the “mobilization of colony-forming progenitors” value in the assay on C57Bl/6 mice is on record as “can mobilize colony-forming progenitors”. Also, the “mobilization of HSC/Ps (LSK cells, progenitor colonies) in Fancc−/− mice” value in the assay on Fancc−/− mice [2] is recorded as “less effective mobilizer of HSC/Ps in Fancc−/− mice than in WT mice”.
